Key:
[1] = test system: primary culture myocardium cell damaged by hypoxia/reoxygenation; test: Anti-hypoxia/reoxygenation injury effect on primary culture myocardium cell (MTT); assay type: cell-based, Neonatal SD rat
Description: Take ventricle from Neonatal SD rat, wash with D-Hank's and cut to small pieces, digest with collagenase II to obtain the myocardium cell and fibroblast, which are cultivated with high glucose DMEM (dmem-h-15) culture medium containing 15% fetal bovine serum. Remove the fibroblast through differential adhesion and chemistry method, and inoculate myocardium cell on the 96-well plates.
2.1.3 Anti-Hypoxia/Reoxygenation Injury Effect of CMPC to Primary Culture Myocardium Cell.
Cell cultivation method is the same as that in 2.1.1
Preparation of model: Preparing the model by using the myocardium cell cultured for 48˜72 h, dividing the cell on the culture plate to following groups: Control Group, Model Group, Verapamil Group (2, 0.4, 0.08 mg/l final concentration) and CMPM Group (final concentration of 50, 10, 2, 0.4, 0.08, 0.016, 0.0032 mg/l), 3 wells for every group. Except the Control Group, the other groups are prepared by following method: placing the monolayer myocardium cell on center of culture plate on low glucose medium (containing Verapamil or CMPM with corresponding concentration), then placing the culture plate into the vacuum drying machine, filling nitrogen, and hermetically culturing, causing myocardial injury after oxygen lack for 15 hours, then being cultured for 1 hour by high glucose DMEM medium (95% atmosphere and 5% CO2) to cause reoxygention injury. Measuring the absorbance value at 540 nm by using MTT method, and the same as above, calculating the protective rate to figure out EC50.

[2] = test system: primary culture myocardium cell damaged by adriamycin; test: Effect of CMPC against adriamycin injury of primary culture myocardium cell (MTT); assay type: cell-based, Neonatal SD rat
Experimental: Remove the fibroblast through differential adhesion and chemistry method, and inoculate myocardium cell on the 96-well plates.
2.1.2 The Against Function of Cmpc to Injury of Adriamycin to Primary Culture Myocardium Cell.
Cell culture method is the same as 2.1.1
Preparation of model: Blank Control Group: cultivating myocardium cell with DMEM-H-15;
Model Group: adding 1 mg/L adriamycin, washing the plate with DMEM-H-15 two times after being cultivated for 1 h, adding DMEM-H-15 for cultivation;
Protective rate=(Ax−Amodel)/(Acontrol−Amodel)×100%;
(Ax, Amode, Acontrol respectively represent Absorbance value of Drug administration groups, Model Group and Blank control group.

[3] = test system: ischemia/reperfusion damaged rat; test: Preventive administration, ischemia/reperfusion (LAD ligation) rat model; assay type: in vivo, SD rat; details: preventive i.v. 30 min before ligation, Dosage 1.0 mg/kg
Experimental: 70 SD rats (250˜300 g per rat) were taken, wherein, 60 rats were divided into 6 groups evenly and randomly according to weight, every 10 of each group, the remains are kept for replacement of dead animals of each group.
Normal Control Group: carrying out sham operation, threading a silk suture through the left anterior descending coronary artery (LAD) without ligation;
Model Group: intravenous injecting saline solution of 5 ml/kg 30 minutes before ligation, and the preparation of hypoxia/reoxygenation model is the same as Normal Control Group;
Positive Control Group: intravenous injecting Verapamil of 1 ml/kg 30 min before ligation, preparation of the hypoxia/reoxygenation model is the same as Normal Control Group. […]
Preparation of the Model:
(§1) Intraperitoneal injecting 6% Urethane with 20 ml/kg to anaesthetize the animal, fixing the animal on operating table in supine position; being connected with the electrocardiograph to detect the limb II lead electrocardiogram, tracheal intubating and connecting the animal with respirators, taking continuous positive end-expiratory pressure with tidal volume of 6 ml/200 g, frequency of 55/min and breathing ratio of 2:1. Carrying out thoracotomy on the gap between the forth and the fifth ribs of the left border of sternum, separating the ribs and removing the pericardium. Ligating at the left anterior descending coronary artery by using 6/0 silk suture by the sign of left auricle lower margin, and setting a piece of polyethylene pipe with diameter of 1 mm between the ligation silk suture and blood vessel. Ligating the silk suture to press the left anterior descending coronary artery by the polyethylene pipe and cause myocardial ischemia. Taking part of myocardium becoming grey and electrocardiogram S-T segment raising as the sign of that the left anterior descending coronary artery is ligated successfully. Taking out the polyethylene pipe carefully to cause the reperfusion. Verifying the success of reoxygenation by reactive hyperemia of ischemia area and the descending of the raised S-T segment by ½. Reoxygenation for 30 minutes, then sampling blood from abdominal aorta to prepare serum which is used to measure the biochemical index (measuring the content of CK, LDH, MDA, SPD according to the Reagent kits Instruction).
(§2) Rat's heart was taken and after being blooded, the residual blood in the ventricle was cleaned by normal saline to weight the weight of whole heart. Fat was removed, the heart was crosscut into 4˜5 pieces and was put into a tube, to be carried out NBT dye at 37° C. (dying the normal tissue rather than the ischemic tissue), taking photographs. The ischemic area of the myocardium was cut to take a weighing, and then the myocardial infarct size (MIS) was calculated by the ratio of weight of the ischemic area of the myocardium to whole heart weight, which was present by percentage.

[4] = test system: ischemia/reperfusion damaged rat; test: Therapeutic administration, ischemia/reperfusion (LAD ligation) rat model; assay type: in vivo, SD rat; details: therapeutic i.v. 5 minutes after ligation, Dosage 1.0 mg/kg
Experimental: as §1, §2
The drug was intravenously injured on the tail 5 minutes after ligation of LAD, then reperfusion was carried out for 30 min 30 minutes after ligation of LAD. Heart was taken after sampling blood from abdominal aorta. The biochemical index and the myocardial infarction size were measure by using the above method.

Structure (SMILES): COc1ccc(CCN(C)CCCC(C#N)(c2ccc(OC)c(OC)c2)C(C)C)cc1OC (stereo not shown) [Positive Control Group, Verapamil, reference compound]
- % (protective rate) ([1]; Plate 1, Dosage 0.08 mg/L): 14.16%
- A540 ([1]; Plate 1, Dosage 0.08 mg/L): 0.524 ± 0.036
- % (protective rate) ([1]; Plate 1, Dosage 0.4 mg/L): 20.15%
- A540 ([1]; Plate 1, Dosage 0.4 mg/L): 0.541 ± 0.029
- % (protective rate) ([1]; Plate 1, Dosage 2 mg/L): 12.87%
- A540 ([1]; Plate 1, Dosage 2 mg/L): 0.520 ± 0.060
- % (protective rate) ([1]; Plate 2, Dosage 0.08 mg/L): 23.85%
- A540 ([1]; Plate 2, Dosage 0.08 mg/L): 0.553 ± 0.031
- % (protective rate) ([1]; Plate 2, Dosage 0.4 mg/L): 33.18%
- A540 ([1]; Plate 2, Dosage 0.4 mg/L): 0.579 ± 0.028
- % (protective rate) ([1]; Plate 2, Dosage 2 mg/L): 29.63%
- A540 ([1]; Plate 2, Dosage 2 mg/L): 0.569 ± 0.029
- % (protective rate) ([1]; Plate 3, Dosage 0.08 mg/L): 30.62%
- A540 ([1]; Plate 3, Dosage 0.08 mg/L): 0.787 ± 0.020
- % (protective rate) ([1]; Plate 3, Dosage 0.4 mg/L): 35.44%
- A540 ([1]; Plate 3, Dosage 0.4 mg/L): 0.795 ± 0.022
- % (protective rate) ([1]; Plate 3, Dosage 2 mg/L): 41.37%
- A540 ([1]; Plate 3, Dosage 2 mg/L): 0.805 ± 0.018
- % (protective rate) ([2]; Plate 1, Dosage 0.08 mg/L): 31.53%
- A540 ([2]; Plate 1, Dosage 0.08 mg/L): 0.694 ± 0.110
- % (protective rate) ([2]; Plate 1, Dosage 0.4 mg/L): 50.23%
- A540 ([2]; Plate 1, Dosage 0.4 mg/L): 0.714 ± 0.021
- % (protective rate) ([2]; Plate 1, Dosage 2 mg/L): 46.83%
- A540 ([2]; Plate 1, Dosage 2 mg/L): 0.710 ± 0.099
- % (protective rate) ([2]; Plate 2, Dosage 0.08 mg/L): 30.45%
- A540 ([2]; Plate 2, Dosage 0.08 mg/L): 0.749 ± 0.031
- % (protective rate) ([2]; Plate 2, Dosage 0.4 mg/L): 30.29%
- A540 ([2]; Plate 2, Dosage 0.4 mg/L): 0.749 ± 0.050
- % (protective rate) ([2]; Plate 2, Dosage 2 mg/L): 46.68%
- A540 ([2]; Plate 2, Dosage 2 mg/L): 0.767 ± 0.045
- % (protective rate) ([2]; Plate 3, Dosage 0.08 mg/L): 30.09%
- A540 ([2]; Plate 3, Dosage 0.08 mg/L): 0.755 ± 0.021
- % (protective rate) ([2]; Plate 3, Dosage 0.4 mg/L): 37.28%
- A540 ([2]; Plate 3, Dosage 0.4 mg/L): 0.770 ± 0.012
- % (protective rate) ([2]; Plate 3, Dosage 2 mg/L): 36.18%
- A540 ([2]; Plate 3, Dosage 2 mg/L): 0.768 ± 0.013
- MIS (myocardial infarct size) ([3]; ischemic area weight/whole heart weight): 4.19 ± 0.70 %
- CK ([3]; rat serum): 2.087 ± 0.432 U/ml
- LDH ([3]; rat serum): 7376.09 ± 784.64 U/L
- MDA ([3]; rat serum): 4.755 ± 0.718 nmol/mL
- SOD ([3]; rat serum): 135.63 ± 7.878 U/ml
- CK ([4]; rat serum): 1.777 ± 0.389 U/ml
- LDH ([4]; rat serum): 6791.96 ± 570.85 U/L
- MDA ([4]; rat serum): 4.960 ± 0.338 nmol/mL
- SOD ([4]; rat serum): 140.36 ± 14.00 U/ml
- MIS (myocardial infarct size) [4]: 4.07 ± 1.56 %

From patent publication US8940865B2, “Myocardial peptide, preparation method and uses thereof” (Dalian Zhen-Ao Pharmaceutical Co, Ltd., priority 2008, dated 2015)
